Read-outs that look alike come from different tables or passages of the source.
How the values were obtained:
[1] = system: pyruvate dehydrogenase impairment; assay: Relief of fatigue and cognitive impairment in persons suffering with ALS; format: in vivo, human
Description: Persons suffering with ALS display chronic fatigue and chronic cognitive impairment. The mechanism of impairment has been traced to an impairment with pyruvate dehydrogenase in the mitochondria. Cells of the central nervous system, the heart and skeletal muscles, due to the impairment, lack the critical energy or ATP to function normally. (D)-β-hydroxybutyrate circumvents the pyruvate dehydrogenase impairment and provides for far higher energy and ATP creation in those cells. […] The dosing regimen should be between 5-60 grams 1-3 times per day with the preferred amount to be between 20-40 grams 3 times per day.

[2] = Ketone blood concentration after ingestion of 1,3-butanediol (FIG. 5, FIG. 6); format: in vivo, human
Description: FIG. 5 depicts an exemplary ketone blood concentration after ingestion of racemic 1,3-butanediol.
FIG. 6 depicts a ketone blood concentration after one person ingested (D)-1,3-butanediol, compared to the results of two people ingesting racemic 1,3-butanediol.
It should also be noted that only the D enantiomer is active in the body as a source of extracellular fuel that is then transported into the cells. Ketone blood level meters currently on the market only measure the blood level of the D enantiomer. Products containing racemic salts require two to three times the amount of sodium, calcium and potassium for an equal amount of (D)-β-hydroxybutyrate. A reason the potential levels of (D)-β-hydroxybutyrate in the blood is over double compared with an equal amount of the racemic solutions is because the body has to waste energy and uses up some of the (D)-β-hydroxybutyrate to burn off the unnatural (L)-β-hydroxybutyrate.
FIG. 5 depicts exemplary results from ingestion of 33 ml racemic 1,3-butanediol. […] For example, as shown, 33 ml of the non-racemic (D) form provided an increase in ketones of approximately 3.2 mmol/L whereas the racemic form provided approximately 0.9-1.0 mmol/L increases over pre consumption ketone levels.

[3] = cited from earlier work

C[C@@H](O)CC(=O)O [(D)-β-hydroxybutyrate]
time to significant reduction of fatigue and cognitive impairment after ingestion [1]: ≤ 15 min

CC(O)CCO (centres unmarked) [(D)-1,3-butanediol]
amount of ketones (mmol) in the blood relative to racemic 1,3-butanediol ([2]; 33 ml each, over a 120 minute period): over double
increase in ketones over pre consumption ketone levels ([2]; ingestion of 33 ml): approximately 3.2 mmol/L

CC(O)CC(=O)[O-].[Na+] (racemic) [racemic sodium β-hydroxybutyrate, sodium β-hydroxybutyrate]
blood ketones reachable ([3]; consumed at about 100-200% of the RDA for sodium): approximately 0.5 mmol/L

CC(O)CC(=O)[O-].[K+] (racemic) [racemic potassium β-hydroxybutyrate, potassium β-hydroxybutyrate]
blood ketones reachable ([3]; consumed at about 100% of potassium's RDA): approximately 0.5 mmol/L

Reference: patent publication US12098411B2, “Exogenous ketone blend compositions for delivery of ketone bodies” (KetoneAid, Inc., priority 2016, dated 2024)
